The text below walks through data of ChEMBL document CHEMBL1122399, “Synthesis and antibacterial activities of new (alpha-hydrazinobenzyl)cephalosporins” (1983).

The MIC is the lowest concentration that inhibits growth of the organism.

Type in all cases: functional
Test [1] deals with Bacteria. The test is described as follows: In vitro antibacterial activity was determined by 2 fold serial agar dilution method in gram negative resistant bacteria.
In test [2] the test system is Bacteria. The test is described as follows: In vitro antibacterial activity was determined by 2 fold serial agar dilution method with multilocular device in gram negative bacteria.
A short description of test [3]: In vitro antibacterial activity was determined by 2 fold serial agar dilution method with multilocular device in gram positive bacteria. A general note: In agar dilution, organisms are placed on agar that contains the substance at set levels.
A short description of test [4]: In vitro antibacterial activity was determined by 2 fold serial agar dilution method in gram positive resistant bacteria.

≈ marks a conversion by molar mass, not a printed value.

On to `CC1=C(C(=O)O)N2C(=O)[C@@H](NC(=O)C(c3ccccc3)N(C)N)C2SC1` (stereo partly specified), for which the MIC in test [1] was greater than 100 mg/L; in test [2] it was 100 mg/L (≈ 266 µM); in test [3] it was 6.74 mg/L (≈ 17.9 µM); in test [4] it was 50 mg/L (≈ 133 µM).

As to `NNC(C(=O)N[C@@H]1C(=O)N2C(C(=O)O)=C(Cl)CSC12)c1ccccc1` (stereo partly specified), the MIC amounted to 50 mg/L (≈ 131 µM) in test [1], 21.4 mg/L (≈ 55.9 µM) in test [2], 1.33 mg/L (≈ 3.47 µM) in test [3] and 31.4 mg/L (≈ 82 µM) in test [4].

As to `CC(=O)OCC1=C(C(=O)O)N2C(=O)[C@@H](NC(=O)C(c3ccccc3)N(C)N)C2SC1` (stereo partly specified), the minimum inhibitory concentration (MIC) in test [1] was greater than 100 mg/L; in test [2], 54.5 mg/L (≈ 125 µM); in test [3] it was 1.33 mg/L (≈ 3.06 µM); in test [4], 24.9 mg/L (≈ 57.3 µM).

Turning to `CC1=C(C(=O)O)N2C(=O)[C@@H](NC(=O)C(NN)c3ccccc3)C2SC1` (stereo partly specified), the minimum inhibitory concentration (MIC) in test [2] was greater than 100 mg/L; in test [3], 12.5 mg/L (≈ 34.5 µM); in test [4] it was 62.9 mg/L (≈ 174 µM).

As for `CC(=O)OCC1=C(C(=O)O)N2C(=O)[C@@H](NC(=O)C(NN)c3ccccc3)C2SC1` (stereo partly specified), the minimal inhibitory concentration (MIC) in test [1] was greater than 100 mg/L; in test [2] it was 73.4 mg/L (≈ 175 µM); in test [3] it was 1.68 mg/L (≈ 4 µM); in test [4], 31.5 mg/L (≈ 74.9 µM).

For `N[C@@H](C(=O)N[C@@H]1C(=O)N2C(C(=O)O)=C(Cl)CS[C@H]12)c1ccccc1` [CEFACLOR ANHYDROUS], the MIC in test [1] was 7.8 mg/L (≈ 21.2 µM); in test [2], 1 mg/L (≈ 2.72 µM); in test [3], 0.16 mg/L (≈ 0.435 µM); in test [4], 15.7 mg/L (≈ 42.7 µM).

Consider `CC1=C(C(=O)O)N2C(=O)[C@@H](NC(=O)[C@H](N)c3ccccc3)[C@H]2SC1` [CEPHALEXIN ANHYDROUS], for which the MIC is 7.8 mg/L (≈ 22.5 µM) in test [1], 5.7 mg/L (≈ 16.4 µM) in test [2], 0.58 mg/L (≈ 1.67 µM) in test [3] and 24.9 mg/L (≈ 71.7 µM) in test [4].

`CC(=O)OCC1=C(C(=O)O)N2C(=O)[C@@H](NC(=O)[C@H](N)c3ccccc3)[C@H]2SC1` [CEPHALOGLYCIN]: the minimum inhibitory concentration (MIC) came out at 79.3 mg/L (≈ 196 µM) in test [1], 8.5 mg/L (≈ 21 µM) in test [2], 1.33 mg/L (≈ 3.28 µM) in test [3] and 19.8 mg/L (≈ 48.8 µM) in test [4].
